Values quoted from earlier work as cited in patent US20190231704A1 (Yale University, priority 2016, published 2019).

Target: T1, ALK4 (Homo sapiens, UniProt P36896)
T1 sequence (P36896 24-505): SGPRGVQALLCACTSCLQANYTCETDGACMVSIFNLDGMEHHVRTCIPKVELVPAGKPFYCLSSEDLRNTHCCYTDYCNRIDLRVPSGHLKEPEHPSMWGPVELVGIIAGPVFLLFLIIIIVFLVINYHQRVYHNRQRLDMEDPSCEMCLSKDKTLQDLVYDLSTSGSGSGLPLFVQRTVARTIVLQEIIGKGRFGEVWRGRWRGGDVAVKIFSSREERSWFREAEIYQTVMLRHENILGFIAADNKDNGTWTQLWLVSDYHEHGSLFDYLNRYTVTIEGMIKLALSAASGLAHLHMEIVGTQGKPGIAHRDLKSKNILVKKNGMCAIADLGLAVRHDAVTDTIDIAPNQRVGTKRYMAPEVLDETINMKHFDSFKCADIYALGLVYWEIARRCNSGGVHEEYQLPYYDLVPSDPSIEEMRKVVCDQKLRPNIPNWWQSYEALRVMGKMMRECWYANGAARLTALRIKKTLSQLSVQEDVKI

Cc1cccc(-c2[nH]c(C(C)(C)C)nc2-c2ccc3c(c2)OCO3)n1 [SB-505124]
IC50: 0.129 µM
